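Compound exposure: 48 hours, 5 concentrations, 96-well plates. GI50 is the concentration that inhibits growth by half. The concentration for full growth arrest is given as TGI.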 Where only a bound is given, the exact number is not on record here.

Test systems include CCRF-CEM leukemia; HCT-116 colon; CAKI-1 renal; M14 melanoma; HOP-92 NSCLC; TK-10 renal; SR leukemia; LOX IMVI melanoma; T-47D breast.
What all share (test): inhibition of tumour cell growth, NCI panel, 48 h

For the compound `CC1=CC2CC(C)C1(C)CCc1ccoc12` (stereo not given), the TGI with CCRF-CEM leukemia, in the assay on HCT-116 colon, in the assay with CAKI-1 renal, in the assay on M14 melanoma, with HOP-92 NSCLC and with TK-10 renal was above 100 µM throughout. Besides, the TGI in the assay with SR leukemia and in the assay with LOX IMVI melanoma was above 100 µM throughout.
Turning to `Cc1cc2c(cc1Br)C1(C)CCC(C)C1(C)O2` (stereo not given), the TGI in the assay on CCRF-CEM leukemia was 56.1 µM; in the assay with HCT-116 colon, 29.1 µM; with CAKI-1 renal, above 100 µM; with M14 melanoma, above 100 µM; in the assay with HOP-92 NSCLC, 53.7 µM; with TK-10 renal, above 100 µM. The TGI with SR leukemia was found to be 30.5 µM; in the assay on LOX IMVI melanoma, 35.4 µM.
`COc1cc2c(c(OC)c1OC)-c1ccc(SC)c(=O)cc1C(CC(=O)Oc1cccc(C#N)c1)C2` (stereo not given): the TGI in the assay with CCRF-CEM leukemia was 5.33 µM; in the assay on HCT-116 colon, 5.66 µM; in the assay on CAKI-1 renal, above 100 µM; in the assay on M14 melanoma, above 88.8 µM; with HOP-92 NSCLC it was above 100 µM; in the assay with SR leukemia it was 56.3 µM. For the same compound, the TGI in the assay with LOX IMVI melanoma is above 33.2 µM.
Turning to `CC(=O)O[C@H]1CC[C@@]2(C)C(=CC[C@@H]3C2CC[C@]2(C)Nc4[nH]ncc4CC32)C1` (stereo not given in full), the TGI in the assay with CCRF-CEM leukemia was 40.3 µM; in the assay with HCT-116 colon, 29.9 µM; in the assay with CAKI-1 renal, above 100 µM; in the assay with M14 melanoma it was 42.9 µM; in the assay with TK-10 renal it was above 100 µM.
Regarding `CCC[CH2][Sn]1([CH2]CCC)[O]C(=O)CN=Cc2ccccc2[O]1`, the GI50 with HCT-116 colon is 0.71 µM; in the assay on CAKI-1 renal, 0.182 µM; in the assay on M14 melanoma, 0.368 µM; in the assay with HOP-92 NSCLC, 0.182 µM; in the assay with TK-10 renal, 0.292 µM; in the assay on LOX IMVI melanoma, 0.205 µM. Further, the TGI came to 2.09 µM in the assay on HCT-116 colon; 0.631 µM with CAKI-1 renal; 1.37 µM with M14 melanoma; 0.519 µM in the assay on HOP-92 NSCLC; 0.729 µM in the assay with TK-10 renal; 0.527 µM with LOX IMVI melanoma.
With `CN(CCN(C)C(=O)CCOS(C)(=O)=O)C(=O)CCOS(C)(=O)=O`, the TGI in the assay with CCRF-CEM leukemia, in the assay on HCT-116 colon, with CAKI-1 renal, with M14 melanoma, in the assay on HOP-92 NSCLC and in the assay on TK-10 renal was above 100 µM in each case. In addition, the TGI in the assay on SR leukemia and with LOX IMVI melanoma was above 100 µM throughout.
As for `Cc1c(O)c(=O)ccn1CCO`, the TGI in the assay on CCRF-CEM leukemia, in the assay with HCT-116 colon, in the assay on CAKI-1 renal, with M14 melanoma, in the assay with HOP-92 NSCLC and in the assay on TK-10 renal was above 100 µM throughout. Further, the TGI with SR leukemia and in the assay on LOX IMVI melanoma was above 100 µM in each case.
Consider `COc1ccc(C(O)/C(=C/n2ccnc2)c2ccccc2)cc1OC` (stereo not given), for which the TGI with CCRF-CEM leukemia, in the assay on HCT-116 colon, with M14 melanoma, in the assay with HOP-92 NSCLC, with TK-10 renal and in the assay with SR leukemia was above 100 µM throughout. The same compound showed a TGI in the assay on LOX IMVI melanoma above 100 µM.
For `Clc1cc(Cl)cc(Nc2nc3ccccc3nc2-c2cccs2)c1`, the TGI in the assay on CCRF-CEM leukemia was above 100 µM; in the assay on HCT-116 colon it was 72 µM; in the assay on HOP-92 NSCLC, 38.1 µM; with TK-10 renal, 75.6 µM; with SR leukemia it was above 100 µM; with LOX IMVI melanoma, above 100 µM.
Consider `C=CCN(CC=C)CC(C(C)=O)C(c1ccccc1)c1c(O)c2ccccc2oc1=O` (stereo not given), for which the TGI in the assay on CCRF-CEM leukemia, with HCT-116 colon, in the assay on CAKI-1 renal, in the assay on M14 melanoma, with HOP-92 NSCLC and in the assay on TK-10 renal was above 100 µM each time. The TGI with SR leukemia and in the assay on LOX IMVI melanoma was above 100 µM throughout.
As for `C[Si]12OCCCN(CCO1)CCO2`, the TGI with CCRF-CEM leukemia, in the assay with HCT-116 colon, with CAKI-1 renal, in the assay on HOP-92 NSCLC, with TK-10 renal and in the assay on SR leukemia was above 100 µM throughout.
Take `COc1ccccc1NC(=O)C1=C(C)NC(C)=C(C(=O)Nc2ccccc2OC)C1c1cccc2c1OCO2`: the TGI in the assay with CCRF-CEM leukemia, in the assay with HCT-116 colon, in the assay with CAKI-1 renal, with M14 melanoma, in the assay on HOP-92 NSCLC and with TK-10 renal was above 100 µM throughout. Further, the TGI with SR leukemia and in the assay with LOX IMVI melanoma was above 100 µM each time.
For the compound `OCc1ccc(Oc2c3ccccc3nc3occc23)cc1`, the GI50 in the assay on CCRF-CEM leukemia was 31.3 µM; in the assay with HCT-116 colon, 15.9 µM; with T-47D breast it was 6.94 µM; in the assay on CAKI-1 renal it was 18.1 µM; in the assay with M14 melanoma, 23.8 µM; in the assay on TK-10 renal, 18.1 µM. For the same compound, in the assay with SR leukemia, the GI50 is 38.5 µM. Besides, the TGI in the assay on CCRF-CEM leukemia is above 100 µM; in the assay with HCT-116 colon, 29.4 µM; in the assay on T-47D breast, 62.4 µM; in the assay on CAKI-1 renal it was 35.8 µM; with M14 melanoma, 57.6 µM; in the assay on TK-10 renal it was 46.8 µM. In the assay on SR leukemia, this compound returned a TGI above 100 µM.
In the case of `O=CN1CCN(C=S)CC1`, the TGI in the assay on CCRF-CEM leukemia, in the assay with HCT-116 colon, in the assay with CAKI-1 renal, in the assay with M14 melanoma, in the assay on HOP-92 NSCLC and in the assay on TK-10 renal was above 100 µM each time. In addition, the TGI in the assay on SR leukemia and with LOX IMVI melanoma was above 100 µM in each case.
Regarding `CNC(=O)OCc1[nH]ccc2c(C)c3nc4ccc(OC)cc4c3cc12`, the TGI was 13.6 µM in the assay on CCRF-CEM leukemia; above 100 µM in the assay on HCT-116 colon; above 100 µM in the assay on CAKI-1 renal; above 100 µM with M14 melanoma; above 100 µM in the assay on HOP-92 NSCLC; above 79.1 µM in the assay on TK-10 renal. Besides, the TGI in the assay on SR leukemia is 1.98 µM.
Regarding `COc1ccccc1NC(=O)CC(=O)NNCC(=O)Nc1nnc(-c2ccccc2)o1`, the TGI in the assay on HCT-116 colon, with CAKI-1 renal, with M14 melanoma, in the assay on TK-10 renal, in the assay with SR leukemia and in the assay on LOX IMVI melanoma was above 100 µM in each case.
Consider `CCOC(=O)c1cnc2cc3cccccc3n2c1=O`, for which the TGI with CCRF-CEM leukemia, in the assay on HCT-116 colon, in the assay on CAKI-1 renal, in the assay on M14 melanoma, with TK-10 renal and with SR leukemia was above 100 µM throughout. The TGI in the assay with LOX IMVI melanoma is above 100 µM.
Consider `O=C(O)CCCNS(=O)(=O)c1ccc2ccccc2c1`, for which the TGI in the assay on CCRF-CEM leukemia, in the assay with CAKI-1 renal, in the assay on M14 melanoma, in the assay on HOP-92 NSCLC, in the assay with TK-10 renal and in the assay with LOX IMVI melanoma was above 100 µM throughout.
Turning to `COC(=O)C1=Cc2c(cc(OC)c(OC)c2OC)[C@H](c2ccc(OC)c(OC)c2OC)C1C(=O)OC` (stereo not given in full), the TGI with CCRF-CEM leukemia, in the assay on HCT-116 colon, with CAKI-1 renal, in the assay on M14 melanoma, in the assay with HOP-92 NSCLC and in the assay with TK-10 renal was above 100 µM throughout. For the same compound, the TGI in the assay with SR leukemia and in the assay with LOX IMVI melanoma was above 100 µM in each case.
As to `COc1ccc2c(c1)CCCC1C3=NCCC3(C)CSC21` (stereo not given), the TGI in the assay with CCRF-CEM leukemia, in the assay with HCT-116 colon, in the assay with M14 melanoma, in the assay with TK-10 renal and in the assay with LOX IMVI melanoma was above 100 µM throughout.
As to `CC1CC2(CCC1OCc1ccccc1)OCCO2` (stereo not given), the TGI in the assay with CCRF-CEM leukemia, with HCT-116 colon, in the assay with CAKI-1 renal, with M14 melanoma, in the assay on HOP-92 NSCLC and in the assay on TK-10 renal was above 100 µM in each case. The same compound gave a TGI in the assay on LOX IMVI melanoma above 100 µM.
In the case of `O=C(O)c1ccc(C2C3C=CC(C3)C2[N+](=O)[O-])cc1` (stereo not given), the TGI in the assay on CCRF-CEM leukemia, with CAKI-1 renal, in the assay with M14 melanoma, with TK-10 renal and in the assay on LOX IMVI melanoma was above 100 µM throughout.
With `CCOC(=O)[C@H]1Nc2ccc(Cl)cc2[C@H]2c3ccccc3O[C@H]21`, the TGI with HCT-116 colon, in the assay on CAKI-1 renal, with M14 melanoma, in the assay with TK-10 renal, in the assay with SR leukemia and in the assay on LOX IMVI melanoma was above 100 µM each time.
Consider `CCOC(=O)C(=O)Nc1ccc(Cl)c(C(F)(F)F)c1`, for which the TGI in the assay on CCRF-CEM leukemia, in the assay with HCT-116 colon, with CAKI-1 renal, in the assay on M14 melanoma, with TK-10 renal and with SR leukemia was above 100 µM each time. In the assay on LOX IMVI melanoma, this compound showed a TGI above 100 µM.
Regarding `NC(=O)c1c2c(cc3c(=O)c4ccccc4[nH]c13)CCCC2`, the TGI in the assay with CCRF-CEM leukemia was 98.7 µM; in the assay on HCT-116 colon, above 100 µM; in the assay on CAKI-1 renal, above 100 µM; with M14 melanoma, above 100 µM; with HOP-92 NSCLC, above 100 µM; in the assay with TK-10 renal, above 100 µM. Moreover, the TGI in the assay on SR leukemia and in the assay on LOX IMVI melanoma was above 100 µM throughout.

The values above are taken from PubChem BioAssay (NCI).
